This is an account of results in patent EP0572122A2, “C-terminal modified osteogenic growth polypeptides” (YISSUM RESEARCH AND DEVELOPMENT COMPANY OF THE HEBREW …, priority 1992, dated 1993).

This test concerns anti-OGP IgG. Nature of the test: ELISA reactivity of peptides with the anti-OGP IgG preparation. The class given is binding, rabbits. To be noted: polyclonal rabbit anti-OGP IgG fraction.

Description: The wells were washed with 200 µl PBS (x3). Blocking of unreacted sites on the plastic well bottom was carried out by incubation of 1% gelatine in PBS at 37°C for 1 h. Rinsing with PBS (3 x 200 µl) was followed by 2 h incubation with the anti-OGP IgG preparation (diluted 1:300 with reference to the original rabbit anti-serum) at room temperature. This was followed by rinsing with (i) 3% BSA in PBS (1 x 200 µl); (ii) 0.02% Tween 20 in PBS (1 x 200 µl); and (iii) PBS (3 x 200 µl). The wells were then incubated with 100 µl of 1:1000 dilution in PBS of goat alkaline phosphatase conjugated anti-rabbit IgG for 2 h at room temperature. Rinsing with (i) 0.02% Tween in PBS (1 x 200 µl); (ii) PBS (2 x 200 µl); (iii) bidistilled water (3 x 200 µl) preceded a 20 min incubation at room temperature with alkaline phosphatase buffer solution: p-nitrophenyl phosphate 1 mg/ml in substrate buffer (diethanolamine buffer pH 9.6). Light absorbance at 450 nm was then recorded using an ELISA reader.

As to “parathyroid hormone (PTH) (1-34) [PTH (1-34)]”, the “binding to / reaction with anti-OGP IgG in ELISA” value is listed as “failed to react”.
